Measurements reported in article PMC12591484 (PLOS One, 2025).

What was measured:
Test in all cases: Effects of cysteine modification with pCMBS on Low/High GABA response ratio
Assay type in all cases: cell-based
[1] = biological target: T1, α1A291Cβ3γ2L GABAA receptors (Homo sapiens, UniProt P14867+P18507+P28472, A318C)
T1 construct: expressed in transfected cells; host or cells: Xenopus oocytes injected with capped mRNA, 1α:1β:5γ
Procedure: (§1) The pCMBS exposure was calculated as concentration × time (e.g. 100 μM × 30 s = 3000 µM × s). […] The pCMBS exposures were varied to generate modification ratio vs. pCMBS exposure curves. Each oocyte was studied at a single pCMBS exposure condition. For each cysteine mutant, 5 oocytes were studied at 4 to 7 pCMBS exposure conditions. The modification ratio vs. pCMBS exposure curves were fit with mono-phasic or bi-phasic logistic equations similar to Eq 1, using non-linear least squares.

[2] = biological target: T2, α1M236Cβ3γ2L GABAA receptors (Homo sapiens, UniProt P14867+P18507+P28472, M263C); details: post- to pre-modification Low/High GABA response ratio
T2 construct: expressed in transfected cells; host or cells: Xenopus oocytes injected with capped mRNA, 1α:1β:5γ
Procedure: as §1

[3] = biological target: T3, α1S270Cβ3γ2L GABAA receptors (Homo sapiens, UniProt P14867+P18507+P28472, S297C)
T3 construct: expressed in transfected cells; host or cells: Xenopus oocytes injected with capped mRNA, 1α:1β:5γ
Procedure: as §1

[4] = biological target: T4, α1β3L231Cγ2L GABAA receptors (Homo sapiens, UniProt P14867+P18507+P28472, L256C); details: post- to pre-modification Low/High GABA response ratio
T4 construct: expressed in transfected cells; host or cells: Xenopus oocytes injected with capped mRNA, 1α:1β:5γ
Procedure: as §1

[5] = biological target: T5, α1β3M286Cγ2L GABAA receptors (Homo sapiens, UniProt P14867+P18507+P28472, M311C); details: post- to pre-modification Low/High GABA response ratio
T5 construct: expressed in transfected cells; host or cells: Xenopus oocytes injected with capped mRNA, 1α:1β:5γ
Procedure: as §1

[6] = biological target: T6, α1β3γ2I242C GABAA receptors (Homo sapiens, UniProt P14867+P18507+P28472, I281C); details: post- to pre-modification Low/High GABA response ratio
T6 construct: expressed in transfected cells; host or cells: Xenopus oocytes injected with capped mRNAs mixed 1α:1β:5γ
Procedure: as §1

[7] = biological target: T7, α1β3γ2L246C GABAA receptors (Homo sapiens, UniProt P14867+P18507+P28472, L285C); details: post- to pre-modification Low/High GABA response ratio
T7 construct: expressed in transfected cells; host or cells: Xenopus oocytes injected with capped mRNAs mixed 1α:1β:5γ
Procedure: as §1

[8] = biological target: T8, α1β3γ2S301C GABAA receptors (Homo sapiens, UniProt P14867+P18507+P28472, S340C); details: post- to pre-modification Low/High GABA response ratio
T8 construct: expressed in transfected cells; host or cells: Xenopus oocytes injected with capped mRNAs mixed 1α:1β:5γ
T8 sequence (P14867 28-456): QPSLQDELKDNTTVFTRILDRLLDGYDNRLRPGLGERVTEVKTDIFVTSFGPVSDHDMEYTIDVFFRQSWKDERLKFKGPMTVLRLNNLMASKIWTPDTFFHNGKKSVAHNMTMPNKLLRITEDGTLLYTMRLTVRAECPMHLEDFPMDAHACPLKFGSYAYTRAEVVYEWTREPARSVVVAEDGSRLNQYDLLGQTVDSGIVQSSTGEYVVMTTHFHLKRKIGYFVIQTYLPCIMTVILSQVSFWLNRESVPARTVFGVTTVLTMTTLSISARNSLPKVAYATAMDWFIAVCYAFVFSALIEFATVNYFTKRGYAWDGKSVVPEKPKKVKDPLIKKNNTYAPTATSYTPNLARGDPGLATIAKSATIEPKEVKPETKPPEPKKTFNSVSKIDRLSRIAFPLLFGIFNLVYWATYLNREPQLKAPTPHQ
T8 sequence (P28472 26-473): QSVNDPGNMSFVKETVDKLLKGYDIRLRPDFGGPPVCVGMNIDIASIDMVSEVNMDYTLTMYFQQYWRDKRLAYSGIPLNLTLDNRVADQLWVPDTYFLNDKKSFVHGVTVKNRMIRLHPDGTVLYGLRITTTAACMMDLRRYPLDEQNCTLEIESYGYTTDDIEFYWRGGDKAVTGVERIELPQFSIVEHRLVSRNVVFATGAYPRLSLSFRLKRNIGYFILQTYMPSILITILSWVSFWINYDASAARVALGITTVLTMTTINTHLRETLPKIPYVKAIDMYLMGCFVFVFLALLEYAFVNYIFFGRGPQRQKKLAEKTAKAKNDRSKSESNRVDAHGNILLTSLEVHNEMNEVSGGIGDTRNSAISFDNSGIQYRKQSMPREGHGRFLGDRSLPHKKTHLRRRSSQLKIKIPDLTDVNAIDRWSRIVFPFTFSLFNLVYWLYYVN
T8 sequence (P18507 40-475 S340C): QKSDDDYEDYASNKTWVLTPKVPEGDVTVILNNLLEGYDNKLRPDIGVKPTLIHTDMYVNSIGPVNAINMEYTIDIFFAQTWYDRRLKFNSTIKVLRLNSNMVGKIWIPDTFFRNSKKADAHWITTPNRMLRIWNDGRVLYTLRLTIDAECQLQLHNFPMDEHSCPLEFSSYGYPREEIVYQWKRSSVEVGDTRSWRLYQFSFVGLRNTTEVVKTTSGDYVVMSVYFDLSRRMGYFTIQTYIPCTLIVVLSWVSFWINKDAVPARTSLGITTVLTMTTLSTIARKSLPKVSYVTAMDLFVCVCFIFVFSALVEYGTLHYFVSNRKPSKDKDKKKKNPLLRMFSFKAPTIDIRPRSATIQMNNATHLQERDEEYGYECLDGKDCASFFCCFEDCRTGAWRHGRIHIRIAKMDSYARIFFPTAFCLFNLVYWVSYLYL
Procedure: as §1

T1 sequence (P14867 28-456 A318C, one chain of several): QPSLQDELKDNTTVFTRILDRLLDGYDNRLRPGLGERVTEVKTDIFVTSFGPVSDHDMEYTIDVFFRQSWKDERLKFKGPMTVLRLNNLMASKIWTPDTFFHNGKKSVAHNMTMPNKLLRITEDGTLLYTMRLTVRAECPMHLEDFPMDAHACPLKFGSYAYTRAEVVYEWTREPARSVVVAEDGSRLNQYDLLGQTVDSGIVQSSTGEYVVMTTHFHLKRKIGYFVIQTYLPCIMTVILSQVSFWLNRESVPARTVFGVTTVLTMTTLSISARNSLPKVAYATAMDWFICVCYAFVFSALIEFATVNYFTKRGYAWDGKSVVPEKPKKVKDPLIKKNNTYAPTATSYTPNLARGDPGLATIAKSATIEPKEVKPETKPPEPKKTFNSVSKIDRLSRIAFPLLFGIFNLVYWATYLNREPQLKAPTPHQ
T1 sequence (P18507 40-475, one chain of several): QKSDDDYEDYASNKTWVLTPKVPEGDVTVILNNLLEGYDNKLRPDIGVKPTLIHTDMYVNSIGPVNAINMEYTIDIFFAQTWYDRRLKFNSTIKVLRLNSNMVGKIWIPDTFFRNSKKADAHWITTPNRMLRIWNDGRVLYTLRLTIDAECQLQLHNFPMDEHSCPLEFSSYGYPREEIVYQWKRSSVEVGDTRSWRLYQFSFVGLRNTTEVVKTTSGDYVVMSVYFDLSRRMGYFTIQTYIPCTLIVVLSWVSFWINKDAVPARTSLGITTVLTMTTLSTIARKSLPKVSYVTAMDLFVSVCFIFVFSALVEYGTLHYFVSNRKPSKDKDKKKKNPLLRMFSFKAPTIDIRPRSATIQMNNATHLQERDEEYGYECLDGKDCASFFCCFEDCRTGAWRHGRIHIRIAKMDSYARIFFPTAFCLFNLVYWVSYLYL
T3 sequence (P14867 28-456 S297C, one chain of several): as the sequence (P14867 28-456 A318C, one chain of several) above, with S270C, C291A counted along it
T3 sequence (P18507 40-475, one chain of several): as the sequence (P18507 40-475, one chain of several) above
T2 sequence (P14867 28-456 M263C, one chain of several): as the sequence (P14867 28-456 A318C, one chain of several) above, with M236C, C291A counted along it
T2 sequence (P18507 40-475, one chain of several): as the sequence (P18507 40-475, one chain of several) above
T6 sequence (P18507 40-475 I281C, one chain of several): as the sequence (P18507 40-475, one chain of several) above, with I242C counted along it
T5 sequence (P28472 26-473 M311C, one chain of several): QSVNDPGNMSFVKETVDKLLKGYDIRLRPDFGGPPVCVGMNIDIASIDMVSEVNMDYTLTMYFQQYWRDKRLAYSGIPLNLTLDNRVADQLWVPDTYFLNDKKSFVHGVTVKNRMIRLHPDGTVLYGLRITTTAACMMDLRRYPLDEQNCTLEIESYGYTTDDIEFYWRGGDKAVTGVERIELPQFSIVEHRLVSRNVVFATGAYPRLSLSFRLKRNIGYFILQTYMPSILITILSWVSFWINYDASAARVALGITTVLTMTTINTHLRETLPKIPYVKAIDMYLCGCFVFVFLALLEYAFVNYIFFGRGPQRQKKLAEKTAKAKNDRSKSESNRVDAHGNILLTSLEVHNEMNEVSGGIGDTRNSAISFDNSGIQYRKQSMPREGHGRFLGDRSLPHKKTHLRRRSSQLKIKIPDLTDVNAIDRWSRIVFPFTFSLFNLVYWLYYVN
T5 sequence (P18507 40-475, one chain of several): as the sequence (P18507 40-475, one chain of several) above
T4 sequence (P28472 26-473 L256C, one chain of several): as the sequence (P28472 26-473 M311C, one chain of several) above, with L231C, C286M counted along it
T4 sequence (P18507 40-475, one chain of several): as the sequence (P18507 40-475, one chain of several) above
T7 sequence (P18507 40-475 L285C, one chain of several): as the sequence (P18507 40-475, one chain of several) above, with L246C counted along it

O=S(=O)([O-])c1cc[c]([Hg][Cl])cc1.[Na+] [pCMBS, para-chloromercuribenzenesulfonic acid sodium salt]
modification ratio, control modification, single oocyte example (Fig 2A) ([1]; 3 mM GABA + 10 µM pCMBS for 90 s): 4.0 | Maximal pCMBS Modification Ratio Mean ± SD ([1]; post- to pre-modification Low/High GABA response ratio): 4.7 ± 0.61 | Maximal pCMBS Modification Ratio Mean ± SD [2]: 13 ± 1.4 | pCMBS exposure with maximum effect on modification ratio ([3]; α1S270C, biphasic effect of increasing pCMBS exposure): 300 µM x s | Maximal pCMBS Modification Ratio Mean ± SD ([3]; α1S270Cβ3γ2L, post- to pre-modification Low/High GABA response ratio, biphasic): 11.8 ± 0.77 | Maximal pCMBS Modification Ratio Mean ± SD [4]: 13 ± 1.3 | Maximal pCMBS Modification Ratio Mean ± SD [5]: 9 ± 3.1 | Maximal pCMBS Modification Ratio Mean ± SD [6]: 17 ± 4.9 | Maximal pCMBS Modification Ratio Mean ± SD [7]: 5 ± 1.0 | Maximal pCMBS Modification Ratio Mean ± SD [8]: 5.3 ± 0.23
